Measurements reported in patent EP2396329B1, “COMPOUNDS FOR THE TREATMENT OF HEPATITIS C” (priority 2009, dated 2010).
Read-outs that look alike come from different tables or passages of the source.

What was measured:
[1] = test system: HCV replicon; assay: HCV replicon assay (FRET or luciferase readout); assay type: cell-based
Text: FRET Assay Preparation. To perform the HCV FRET screening assay, 96-well cell culture plates were used. The FRET peptide (Anaspec, Inc.) (Taliani et al., Anal. Biochem. 1996, 240, 60-67) contains a fluorescence donor, EDANS, near one end of the peptide and an acceptor, DABCYL, near the other end. The fluorescence of the peptide is quenched by […] resonance energy transfer (RET) between the donor and the acceptor, but as the NS3 protease cleaves the peptide the products are released from RET quenching and the fluorescence of the donor becomes apparent. The assay reagent was made as follows: 5X cell Luciferase cell culture lysis reagent from Promega (#E153A) diluted to 1X with dH2O, NaCl added to 150 mM final, the FRET peptide diluted to 20 µM final from a 2 mM stock.
To prepare plates, HCV replicon cells, with or without a Renilla luciferase reporter gene, were trypsinized and placed into each well of a 96-well plate with titrated test compounds added in columns 3 through 12; columns 1 and 2 contained a control compound (HCV protease inhibitor), and the bottom row contained cells without compound. The plates were then placed in a CO2 incubator at 37 °C.
Assays. Subsequent to addition of the test compounds described above (FRET Assay Preparation), at various times the plate was removed and Alamar blue solution (Trek Diagnostics, #00-100) was added per well as a measure of cellular toxicity. After reading in a Cytoflour 4000 instrument (PE Biosystems), plates were rinsed with PBS and then used for FRET assay by the addition of 30 ul of the FRET peptide assay reagent described above (FRET Assay Preparation) per well. The plate was then placed into the Cytoflour 4000 instrument which had been set to 340 excite/490 emission, automatic mode for 20 cycles and the plate read in a kinetic mode. Typically, the signal to noise using an endpoint analysis after the reads was at least three-fold. Alternatively, after Alamar blue reading, plates were rinsed with PBS, 50 ul of DMEM (high glucose) without phenol red was added and plates were then used for luciferase assay using the Promega Dual-Glo Luciferase Assay System.
Compound analysis was determined by quantification of the relative HCV replicon inhibition and the relative cytotoxicity values. To calculate cytoxicity values, the average Alamar Blue fluorescence signals from the control wells were set as 100% non-toxic. The individual signals in each of the compound test wells were then divided by the average control signal and multiplied by 100% to determine […]. To calculate the HCV replicon inhibition values, an average background value was obtained from the two wells containing the highest amount of HCV protease inhibitor at the end of the assay period. These numbers were similar to those obtained from naïve Huh-7 cells.
The background numbers were then subtracted from the average signal obtained from the control wells and this number was used as 100% activity. The individual signals in each of the compound test wells were then divided by the averaged control values after background subtraction and multiplied by 100% to determine percent activity. EC50 values for a protease inhibitor titration were calculated as the concentration which caused a 50% reduction in FRET or luciferase activity. The two numbers generated for the compound plate, percent cytoxicity and percent activity were used to determine compounds of interest for further analysis.

[2] = molecular target: T1, HCV NS5B (Hepatitis C virus genotype 1b, UniProt Q9WMX2); assay: HCV NS5B RdRp enzyme assay (standard or modified); assay type: biochemical
T1 construct: The protein was expressed with an 18 amino acid C-terminal truncation to enhance the solubility; made in house; host or cells: E. coli BL21(DE3)
Procedure: HCV NS5B RdRp cloning, expression, and purification. The cDNA encoding the NS5B protein of HCV, genotype 1b, was cloned into the pET21a expression vector. The protein was expressed with an 18 amino acid C-terminal truncation to enhance the solubility. The E. coli competent cell line BL21(DE3) was used for expression of the protein. Cultures were grown at 37 °C for ~ 4 hours until the cultures reached an optical density of 2.0 at 600 nm. The cultures were cooled to 20 °C and induced with I mM IPTG. Fresh ampicillin was added to a final concentration of 50 µg/ml and the cells were grown overnight at 20 °C.
Cell pellets (3L) were lysed for purification to yield 15-24 mgs of purified NS5B. The lysis buffer consisted of 20 mM Tris-HCl, pH 7.4, 500 mM NaCl, 0.5% triton X-100, 1 mM DTT, 1mM EDTA, 20% glycerol, 0.5 mg/ml lysozyme, 10 mM MgCl2, 15 ug/ml deoxyribonuclease I, and Complete TM protease inhibitor tablets (Roche). After addition of the lysis buffer, frozen cell pellets were resuspended using a tissue homogenizer. To reduce the viscosity of the sample, aliquots of the lysate were sonicated on ice using a microtip attached to a Branson sonicator. The sonicated lysate was centrifuged at 100,000 x g for 1hr at 4 °C and filtered through a 0.2 µm filter unit (Corning).
The protein was purified using three sequential chromatography steps: Heparin sepharose CL-6B, polyU sepharose 4B, and Hitrap SP sepharose (Pharmacia). The chromatography buffers were identical to the lysis buffer but contained no lysozyme, deoxyribonuclease I, MgCl2 or protease inhibitor and the NaCl concentration of the buffer was adjusted according to the requirements for charging the protein onto the column. Each column was eluted with a NaCl gradient which varied in length from 5-50 column volumes depending on the column type. After the final chromatography step, the resulting purity of the enzyme is >90% based on SDS-PAGE analysis. The enzyme was aliquoted and stored at -80 °C.
Standard HCV NS5B RdRp enzyme assay. HCV RdRp genotype 1b assays were run in a final volume of 60 µl in 96 well plates (Costar 3912). The assay buffer is composed of 20 mM Hepes, pH 7.5, 2.5 mM KCI, 2.5 mM MgCl2, 1 mM DTT, 1.6 U RNAse inhibitor (Promega N2515), 0.1 mg/ml BSA (Promega R3961), and 2 % glycerol. All compounds were serially diluted (3-fold) in DMSO and diluted further in water such that the final concentration of DMSO in the assay was 2%. HCV RdRp genotype Ib enzyme was used at a final concentration of 28 nM. A polyA template was used at.6 nM, and a biotinylated oligo-dT12 primer was used at 180 nM final concentration. Template was obtained commercially (Amersham 27-4110). Biotinylated primer was prepared by Sigma Genosys. 3H-UTP was used at 0.6 µCi (0.29 µM total UTP). Reactions were initiated by the addition of enzyme, incubated at 30 °C for 60 min, and stopped by adding 25 µl of 50 mM EDTA containing SPA beads (4 µg/µl, Amersham RPNQ 0007). Plates were read on a Packard Top Count NXT after > 1hr incubation at room temperature.
Modified HCV NS5B RdRp enzyme assay. A modified enzyme assay was performed essentially as described for the standard enzyme assay except for the following: The biotinylated oligo dT12 primer was precaptured on streptavidin-coated SPA beads by mixing primer and beads in assay buffer and incubating at room temperature for one hour. Unbound primer was removed after centrifugation. The primer-bound beads were resuspended in 20 mM Hepes buffer, pH 7.5 and used in the assay at final concentrations of 20 nM primer and 0.67 µg/µl beads. Order of addition in the assay: enzyme (14 nM) was added to diluted compound followed by the addition of a mixture of template (0.2 nM), 3H-UTP (0.6 µCi, 0.29 µM), and primer-bound beads, to initiate the reaction; concentrations given are final. Reactions were allowed to proceed for 4 hours at 30° C.
IC50 values for compounds were determined using seven different [I]. […]

[3] = Hepatitis C virus, HCV replicon cells, FRET or luciferase activity, read-out: EC50
[4] = HCV NS5B RdRp enzyme, genotype 1b, read-out: IC50

T1 sequence (Q9WMX2 2420-2992): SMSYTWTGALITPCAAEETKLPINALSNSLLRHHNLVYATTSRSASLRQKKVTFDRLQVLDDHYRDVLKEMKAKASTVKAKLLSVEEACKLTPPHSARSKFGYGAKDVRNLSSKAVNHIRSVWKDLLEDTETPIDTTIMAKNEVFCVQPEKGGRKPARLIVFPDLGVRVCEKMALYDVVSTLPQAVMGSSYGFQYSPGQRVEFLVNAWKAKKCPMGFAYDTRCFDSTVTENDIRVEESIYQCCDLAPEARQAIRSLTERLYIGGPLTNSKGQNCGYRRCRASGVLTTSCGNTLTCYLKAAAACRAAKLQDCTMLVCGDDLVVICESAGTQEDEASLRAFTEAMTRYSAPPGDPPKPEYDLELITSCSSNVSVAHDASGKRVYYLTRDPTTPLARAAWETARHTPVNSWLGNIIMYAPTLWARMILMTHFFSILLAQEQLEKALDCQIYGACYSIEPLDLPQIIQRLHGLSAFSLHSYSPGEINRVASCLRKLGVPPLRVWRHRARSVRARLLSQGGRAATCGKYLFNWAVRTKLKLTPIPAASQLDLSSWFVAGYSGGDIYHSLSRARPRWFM

CCn1nc(C)c(C2=Cc3cc(OC)ccc3-c3c(C4CCCCC4)c4ccc(C(=O)NS(=O)(=O)C(C)C)cc4n3C2)c1C(=O)N1C[C@@H](C)O[C@H](C)C1
EC50 [1, 3]: 1 to 500 nM
IC50 [2, 4]: 1 to 500 nM

CCn1nc(C)c(C2=Cc3cc(OC)ccc3-c3c(C4CCCCC4)c4ccc(C(=O)NS(=O)(=O)C(C)C)cc4n3C2)c1C(=O)N1CCN(C)CC1
EC50 [1, 3]: 1 to 500 nM
IC50 [2, 4]: 1 to 500 nM

CCn1nc(C)c(C2=Cc3cc(OC)ccc3-c3c(C4CCCCC4)c4ccc(C(=O)NS(=O)(=O)C(C)C)cc4n3C2)c1C(=O)N1C[C@@H](C)N(C)[C@@H](C)C1
EC50 [1, 3]: 1 to 500 nM
IC50 [2, 4]: 1 to 500 nM

CCn1ncc(C(=O)N2C3CCCC2COC3)c1C1=Cc2cc(OC)ccc2-c2c(C3CCCCC3)c3ccc(C(=O)NS(=O)(=O)C(C)C)cc3n2C1
EC50 ([1]; Hepatitis C virus): 1 to 500 nM

CCn1ncc(C(=O)N2C[C@@H](C)N(C)[C@@H](C)C2)c1C1=Cc2cc(OC)ccc2-c2c(C3CCCCC3)c3ccc(C(=O)NS(=O)(=O)C(C)C)cc3n2C1
EC50 [1, 3]: 1 to 500 nM
IC50 [2, 4]: 1 to 500 nM

CCn1ncc(C(=O)N2C3CCC2CN(C)C3)c1C1=Cc2cc(OC)ccc2-c2c(C3CCCCC3)c3ccc(C(=O)NS(=O)(=O)C(C)C)cc3n2C1
EC50 ([1]; Hepatitis C virus): 1 to 500 nM
IC50 [2]: 1 to 500 nM

COc1ccc2c(c1)C=C(c1c(C(=O)N3CC4CCC(C3)O4)cnn1CC(F)(F)F)Cn1c-2c(C2CCCCC2)c2ccc(C(=O)NS(=O)(=O)C(C)C)cc21
EC50 ([1]; Hepatitis C virus): 1 to 500 nM
IC50 [2]: 1 to 500 nM

COc1ccc2c(c1)C=C(c1c(C(=O)N3C4COCC3COC4)cnn1CC(F)(F)F)Cn1c-2c(C2CCCCC2)c2ccc(C(=O)NS(=O)(=O)C(C)C)cc21
EC50 ([1]; Hepatitis C virus): 1 to 500 nM
IC50 [2]: 1 to 500 nM

COc1ccc2c(c1)C=C(c1c(C(=O)N3CC4CC3CO4)cnn1CC(F)(F)F)Cn1c-2c(C2CCCCC2)c2ccc(C(=O)NS(=O)(=O)C(C)C)cc21 (centres unmarked)
EC50 ([1]; Hepatitis C virus): 1 to 500 nM
IC50 [2, 4]: 1 to 500 nM

COc1ccc2c(c1)C=C(c1c(C(=O)N3CCN(C)CC3)cnn1CC(F)(F)F)Cn1c-2c(C2CCCCC2)c2ccc(C(=O)NS(=O)(=O)C(C)C)cc21
EC50 [1, 3]: 1 to 500 nM
IC50 [2, 4]: 1 to 500 nM

COc1ccc2c(c1)C=C(c1c(C(=O)N3C4CCCC3COC4)cnn1C(C)C)Cn1c-2c(C2CCCCC2)c2ccc(C(=O)NS(=O)(=O)C(C)C)cc21
EC50 ([1]; Hepatitis C virus): 1 to 500 nM
IC50 [2]: 1 to 500 nM

COc1ccc2c(c1)C=C(c1c(C(=O)N3CC4CC3CO4)cnn1C(C)C)Cn1c-2c(C2CCCCC2)c2ccc(C(=O)NS(=O)(=O)C(C)C)cc21 (centres unmarked)
EC50 ([1]; Hepatitis C virus): 1 to 500 nM
IC50 [2, 4]: 1 to 500 nM

COc1ccc2c(c1)C=C(c1c(C(=O)N3CCN(C)CC3)cnn1C(C)C)Cn1c-2c(C2CCCCC2)c2ccc(C(=O)NS(=O)(=O)C(C)C)cc21
EC50 [1, 3]: 1 to 500 nM
IC50 [2, 4]: 1 to 500 nM

COc1ccc2c(c1)C=C(c1c(C(=O)N3CC4CCC(C3)O4)c(C)nn1C(C)C)Cn1c-2c(C2CCCCC2)c2ccc(C(=O)NS(=O)(=O)C(C)C)cc21
EC50 ([1]; Hepatitis C virus): 1 to 500 nM

COc1ccc2c(c1)C=C(c1c(C(=O)N3C4CCC3CN(C)C4)c(C)nn1C(C)C)Cn1c-2c(C2CCCCC2)c2ccc(C(=O)NS(=O)(=O)C(C)C)cc21
EC50 ([1]; Hepatitis C virus): 1 to 500 nM
IC50 [2]: 1 to 500 nM

CCn1nc(C)c(C(=O)N2C3CCC2CN(C)C3)c1C1=Cc2cc(OC)ccc2-c2c(C3CCCCC3)c3ccc(C(=O)NS(=O)(=O)C(C)C)cc3n2C1
EC50 ([1]; Hepatitis C virus): 1 to 500 nM
IC50 [2]: 1 to 500 nM

CCn1nc(C)c(C(=O)N2C[C@@H](C)N(C)[C@@H](C)C2)c1C1=Cc2cc(OC)ccc2-c2c(C3CCCCC3)c3ccc(C(=O)NS(=O)(=O)C(C)C)cc3n2C1
EC50 [1, 3]: 1 to 500 nM

CCn1ncc(C(=O)N2CC3CCC(C2)O3)c1C1=Cc2cc(OC)ccc2-c2c(C3CCCCC3)c3ccc(C(=O)NS(=O)(=O)C(C)C)cc3n2C1
EC50 ([1]; Hepatitis C virus): 1 to 500 nM

CCn1ncc(C(=O)N2CC3CCC(C2)N3C)c1C1=Cc2cc(OC)ccc2-c2c(C3CCCCC3)c3ccc(C(=O)NS(=O)(=O)C(C)C)cc3n2C1
EC50 ([1]; Hepatitis C virus): 1 to 500 nM
IC50 [2]: 1 to 500 nM

CCn1nc(C)c(C(=O)N2CC3CCC(C2)N3C)c1C1=Cc2cc(OC)ccc2-c2c(C3CCCCC3)c3ccc(C(=O)NS(=O)(=O)C(C)C)cc3n2C1
EC50 ([1]; Hepatitis C virus): 1 to 500 nM

CCn1nc(C)c(C(=O)N2C3CCCC2COC3)c1C1=Cc2cc(OC)ccc2-c2c(C3CCCCC3)c3ccc(C(=O)NS(=O)(=O)C(C)C)cc3n2C1
EC50 ([1]; Hepatitis C virus): 1 to 500 nM
IC50 [2]: 1 to 500 nM

CCn1nc(C)c(C(=O)N2CCO[C@H](COC)C2)c1C1=Cc2cc(OC)ccc2-c2c(C3CCCCC3)c3ccc(C(=O)NS(=O)(=O)C(C)C)cc3n2C1
EC50 [1, 3]: 1 to 500 nM

COc1ccc2c(c1)C=C(c1c(C(=O)N3C4CCC3CN(C)C4)ncn1C(C)C)Cn1c-2c(C2CCCCC2)c2ccc(C(=O)NS(=O)(=O)C(C)C)cc21
EC50 ([1]; Hepatitis C virus): 1 to 500 nM
IC50 [2]: 1 to 500 nM

COc1ccc2c(c1)C=C(c1c(C(=O)N3C4CCC3CN(C)C4)nnn1C(C)C)Cn1c-2c(C2CCCCC2)c2ccc(C(=O)NS(=O)(=O)N(C)C)cc21
EC50 ([1]; Hepatitis C virus): 1 to 500 nM
IC50 [2]: 1 to 500 nM

COc1ccc2c(c1)C=C(c1nn(C(C)C)c(C)c1C(=O)N1C[C@@H](C)O[C@@H](C)C1)Cn1c-2c(C2CCCCC2)c2ccc(C(=O)NS(=O)(=O)C(C)C)cc21 [drawing 151]
EC50 [1, 3]: 1 to 500 nM

COc1ccc2c(c1)C=C(c1nn(C(C)C)c(C)c1C(=O)N1C[C@@H](C)O[C@@H](C)C1)Cn1c-2c(C2CCCCC2)c2ccc(C(=O)NS(=O)(=O)C(C)C)cc21 [drawing 156]
EC50 ([1]; HCV replicon cells, FRET or luciferase activity, read-out: EC50): 1 to 500 nM
